Assays:
Assay in all cases: Bliss excess, mean over the matrix (fraction); higher = more synergy
[1] = tested on: TE-15 (Esophageal Squamous Cell Carcinoma)
Procedure, shortened: (§1)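 After 24 hours at 37°C and 5% CO2 in 1536-well plates, cells in DMEM/F12 or RPMI plus 10% FBS received two-drug dose matrices for 72 hours. Viability came from CellTiter-Glo 2.0 luminescence and was scaled as inhibition, anchored at 0 by vehicle wells and at 1 by blank wells. Combination Emax is taken as the second-highest inhibition in the matrix, and Bliss excess as the observed combination effect less EA + EB − EA·EB, with EA and EB the single-agent effects.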

[2] = tested on: CAL-148 (Breast Carcinoma)
Procedure, shortened: as §1

[3] = tested on: NCI-H2085 (Non-Small Cell Lung Carcinoma)
Procedure, shortened: as §1

[4] = tested on: NOS-1 (Osteosarcoma)
Procedure, shortened: as §1

[5] = tested on: AGS (Gastric Carcinoma)
Procedure, shortened: as §1

[6] = tested on: RO82-W-1 (Thyroid Gland Carcinoma)
Procedure, shortened: as §1

[7] = tested on: LNCaP-Clone-FGC (Prostate Carcinoma)
Procedure, shortened: as §1

[8] = tested on: KP-1N (Pancreatic Carcinoma)
Procedure, shortened: as §1

[9] = tested on: SK-ES-1 (Ewing's Sarcoma)
Procedure, shortened: as §1

[10] = tested on: LU-135 (Small Cell Lung Carcinoma)
Procedure, shortened: as §1

[11] = tested on: TCCSUP (Bladder Carcinoma)
Procedure, shortened: as §1

[12] = tested on: HO-1-N-1 (Oral Cavity Carcinoma)
Procedure, shortened: as §1

Compound | Bliss excess [1] | Bliss excess [2] | Bliss excess [3] | Bliss excess [4] | Bliss excess [5] | Bliss excess [6] | Bliss excess [7] | Bliss excess [8] | Bliss excess [9] | Bliss excess [10] | Bliss excess [11] | Bliss excess [12]
Cc1c2c(nn1C)CSCc1cc(n(C)n1)CSc1cc(c3ccccc3c1)OCCCc1c(C(=O)O)n(C)c3c-2c(Cl)ccc13 [AZD5991] + C1CN(CCC1(C(=O)N[C@@H](CCO)C2=CC=C(C=C2)Cl)N)C3=NC=NC4=C3C=CN4 [Capivasertib] (first compound max 1 µM, 7x7, partner max 3 µM) | -0.0196 | 0.0486 | -0.0334 | 0.0511 | 0.0013 | -0.016 | -0.043 | 0.0154 | 0.0217 | -0.0112 | 0.0229 | 0.0001
Cc1c2c(nn1C)CSCc1cc(n(C)n1)CSc1cc(c3ccccc3c1)OCCCc1c(C(=O)O)n(C)c3c-2c(Cl)ccc13 [AZD5991] + CC1(C)CCC(CN2CCN(c3ccc(C(=O)NS(=O)(=O)c4ccc(NCC5CCOCC5)c([N+](=O)[O-])c4)c(Oc4cnc5[nH]ccc5c4)c3)CC2)=C(c2ccc(Cl)cc2)C1 [Venetoclax] (first compound max 1 µM, 7x7, partner max 1 µM) | -0.05 | -0.0177 | -0.0042 | 0.0241 | 0.0132 | -0.0523 | -0.0476 | -0.0262 | 0.167 | 0.0178 | -0.0662 | 0.0055
Cc1c2c(nn1C)CSCc1cc(n(C)n1)CSc1cc(c3ccccc3c1)OCCCc1c(C(=O)O)n(C)c3c-2c(Cl)ccc13 [AZD5991] + CCN(CCO)CCCOc1ccc2c(Nc3cc(CC(=O)Nc4cccc(F)c4)[nH]n3)ncnc2c1 [AZD2811] (first compound max 1 µM, 7x7, partner max 1 µM) | 0.0649 | 0.0597 | -0.0575 | -0.0222 | 0.0374 | -0.0642 | 0.0567 | -0.0662 | 0.0028 | 0.0109 | -0.0288 | 0.0237
Cc1c2c(nn1C)CSCc1cc(n(C)n1)CSc1cc(c3ccccc3c1)OCCCc1c(C(=O)O)n(C)c3c-2c(Cl)ccc13 [AZD5991] + CN(C)CCCOc1ccc(-c2ccc3ncc4c(c3c2)n(C2CCOCC2)c(=O)n4C)cn1 [AZD0156] (first compound max 1 µM, 7x7, partner max 1 µM) | 0.0128 | 0.0528 | -0.0266 | -0.0581 | -0.0258 | 0.0257 | -0.0275 | -0.0132 | -0.004 | -0.0413 | -0.0332 | -0.0044
Cc1c2c(nn1C)CSCc1cc(n(C)n1)CSc1cc(c3ccccc3c1)OCCCc1c(C(=O)O)n(C)c3c-2c(Cl)ccc13 [AZD5991] + C[C@@H]1COCCN1C2=NC(=NC(=C2)C3(CC3)[S@](=N)(=O)C)C4=C5C=CNC5=NC=C4 [AZD6738] (first compound max 1 µM, 7x7, partner max 10 µM) | -0.0441 | 0.0584 | 0.0312 | 0.0854 | 0.0629 | -0.0303 | 0.0123 | 0.0679 | 0.017 | 0.0274 | 0.0241 | -0.0134
Cc1c2c(nn1C)CSCc1cc(n(C)n1)CSc1cc(c3ccccc3c1)OCCCc1c(C(=O)O)n(C)c3c-2c(Cl)ccc13 [AZD5991] + C[C@@H](Nc1cc(F)cc(F)c1)c1cc(C(=O)N(C)C)cc2c(=O)cc(N3CCOCC3)oc12 [AZD8186] (first compound max 1 µM, 7x7, partner max 3 µM) | -0.0254 | -0.0338 | -0.043 | 0.023 | 0.0073 | 0.0066 | -0.0234 | -0.0533 | 0.023 | 0.0307 | 0.0237 | 0.0943
Cc1c2c(nn1C)CSCc1cc(n(C)n1)CSc1cc(c3ccccc3c1)OCCCc1c(C(=O)O)n(C)c3c-2c(Cl)ccc13 [AZD5991] + Cc1cc2ncnn2cc1Nc1ncc2c(n1)n(C1CCOCC1)c(=O)n2C [AZD7648] (first compound max 1 µM, 7x7, partner max 10 µM) | -0.0325 | -0.0121 | -0.0493 | 0.0112 | -0.037 | -0.0503 | -0.0423 | -0.0518 | 0.0001 | -0.0237 | -0.0203 | -0.0039
Cc1c2c(nn1C)CSCc1cc(n(C)n1)CSc1cc(c3ccccc3c1)OCCCc1c(C(=O)O)n(C)c3c-2c(Cl)ccc13 [AZD5991] + Cn1cnc2c(F)c(Nc3ccc(Br)cc3Cl)c(C(=O)NOCCO)cc21 [Selumetinib] (first compound max 1 µM, 7x7, partner max 3 µM) | 0.0114 | 0.0184 | -0.0344 | 0.0887 | 0.186 | -0.0528 | -0.0301 | -0.029 | -0.0186 | -0.0003 | -0.0066 | 0.0303
C[C@@H]1COCCN1c1cc(C2([S@](C)(=N)=O)CC2)nc(-c2ccnc3[nH]ccc23)n1 [AZD6738] + O=C(c1cc(Cc2n[nH]c(=O)c3ccccc23)ccc1F)N1CCN(C(=O)C2CC2)CC1 [Olaparib] (first compound max 10 µM, 7x7, partner max 10 µM) | -0.0465 | 0.0123 | -0.0571 | 0.0554 | -0.0108 | -0.098 | -0.0297 | 0.0379 | 0.0804 | 0.0331 | 0.067 | -0.0196
Cc1cc2ncnn2cc1Nc1ncc2c(n1)n(C1CCOCC1)c(=O)n2C [AZD7648] + C=CCn1c(=O)c2cnc(Nc3ccc(N4CCN(C)CC4)cc3)nc2n1-c1cccc(C(C)(C)O)n1 [AZD1775] (first compound max 10 µM, partner max 1 µM) | 0.0223 | 0.0051 | 0.0418 | -0.0145 | -0.0152 | 0.131 | -0.0273 | -0.0681 | 0.0322 | -0.0169 | -0.0109 | 0.0444
Cc1cc2ncnn2cc1Nc1ncc2c(n1)n(C1CCOCC1)c(=O)n2C [AZD7648] + CCN(CCO)CCCOc1ccc2c(Nc3cc(CC(=O)Nc4cccc(F)c4)[nH]n3)ncnc2c1 [AZD2811] (first compound max 10 µM, 7x7, partner max 1 µM) | -0.0213 | -0.0213 | 0.0409 | -0.0036 | 0.0641 | -0.115 | -0.003 | -0.02 | 0.0065 | -0.0223 | 0.0258 | 0.0478
Cc1cc2ncnn2cc1Nc1ncc2c(n1)n(C1CCOCC1)c(=O)n2C [AZD7648] + CN(C)CCCOc1ccc(-c2ccc3ncc4c(c3c2)n(C2CCOCC2)c(=O)n4C)cn1 [AZD0156] (first compound max 10 µM, 7x7, partner max 1 µM) | -0.0383 | 0.0102 | -0.0343 | 0.0258 | 0.0178 | -0.129 | 0.0016 | -0.0058 | 0.0628 | -0.0088 | -0.011 | 0.0046
Cc1cc2ncnn2cc1Nc1ncc2c(n1)n(C1CCOCC1)c(=O)n2C [AZD7648] + C[C@@H]1COCCN1C2=NC(=NC(=C2)C3(CC3)[S@](=N)(=O)C)C4=C5C=CNC5=NC=C4 [AZD6738] (first compound max 10 µM, 7x7, partner max 10 µM) | -0.0193 | 0.0532 | 0.0007 | 0.0761 | 0.0015 | 0.0654 | -0.0069 | -0.0035 | 0.0046 | 0.0123 | 0.0311 | 0.0001
Cc1cc2ncnn2cc1Nc1ncc2c(n1)n(C1CCOCC1)c(=O)n2C [AZD7648] + O=C(c1cc(Cc2n[nH]c(=O)c3ccccc23)ccc1F)N1CCN(C(=O)C2CC2)CC1 [Olaparib] (first compound max 10 µM, 7x7, partner max 10 µM) | -0.0399 | -0.0545 | -0.0444 | -0.0278 | -0.007 | -0.0639 | -0.0049 | 0.0211 | 0.0254 | 0.0148 | -0.0465 | 0.0099
NC1(C(=O)N[C@@H](CCO)c2ccc(Cl)cc2)CCN(c2ncnc3[nH]ccc23)CC1 [Capivasertib] + CC(=O)c1c(C)c2cnc(Nc3ccc(N4CCNCC4)cn3)nc2n(C2CCCC2)c1=O [Palbociclib] (first compound max 10 µM, 7x7, partner max 10 µM) | 0.0281 | -0.0215 | -0.0561 | -0.0389 | 0.0794 | -0.0125 | 0.0242 | 0.0023 | 0.0865 | -0.0357 | 0.0372 | 0.026
NC1(C(=O)N[C@@H](CCO)c2ccc(Cl)cc2)CCN(c2ncnc3[nH]ccc23)CC1 [Capivasertib] + CC(C)n1c(=O)n(C)c2cnc3cc(F)c(-c4ccc(OCCCN5CCCCC5)nc4)cc3c21 [AZD1390] (first compound max 10 µM, 7x7, partner max 0.3 µM) | -0.0774 | -0.0509 | -0.0564 | -0.0117 | -0.108 | -0.0236 | -0.0681 | -0.0767 | 0.0079 | -0.0242 | -0.084 | 0.0055

— the supplement of paper PMC11061612
